Test results as given in US4256736A, “Psychopharmacological peptides” (Akzona Incorporated, priority 1978, dated 1981).
“Also recorded” adds a separate entry of the source.

Assays:
opiate receptor = conditions: in words, prior art section; cited from earlier work
rats [1] = assay: Pole-jumping avoidance behavior (pole climbing test), extinction of the flight response; type: in vivo, rat; conditions: mean ± S.E.
From the text: Rats were trained to jump onto a pole within 5 sec. following presentation of the conditioned stimulus (CS) which was a light on top of the cage. […] 10 trials a day were given in one session with an average intertrial interval of 60 sec. Intervals between trials were 40, 60 and 80 sec. which were presented in a random fashion. Rats were trained for 4 days. Extinction was studied the day following acquisition. During this first post-acquisition session failure to respond within 5 sec. to the CS were not followed by the UCS. All rats were given a 10 trial extinction session. Those animals which made 8 or more avoidances were used for further experimentation. These rats received peptide or placebo (saline) in a volume of 0.5 ml per rat s.c. immediately after completion of the first extinction session. Extinction was studied again 2 and 4 h. later.

[2] = in words; cited from earlier work
melanocytes = conditions: in words; cited from earlier work
rats [3] = conditions: in words, prior art section; cited from earlier work
rats [4] = assay: Ambulation of rats; type: in vivo, rat; conditions: in words, higher dosages
[5] = in words; can be antagonised by naloxone; cited from earlier work
[6] = 0.03 μg per rat s.c., 0 h (first extinction session, injection immediately after)
[7] = 0.03 μg per rat s.c., 2 h after injection
[8] = 0.03 μg per rat s.c., 4 h after injection
[9] = 0.1 μg per rat s.c., 0 h (first extinction session, injection immediately after)
[10] = 0.1 μg per rat s.c., 2 h after injection
[11] = 0.1 μg per rat s.c., 4 h after injection
[12] = 0.3 μg per rat s.c., 0 h (first extinction session, injection immediately after)
[13] = 0.3 μg per rat s.c., 2 h after injection
[14] = 0.3 μg per rat s.c., 4 h after injection

For D-Ala-Met-enkephalin, the “affinity for the opiate receptor” value (opiate receptor) is given as “Affinity for the opiate receptor”.
With `O=C(CCCN1CCC(O)(c2ccc(Cl)cc2)CC1)c1ccc(F)cc1` [Haloperidol] the “Extinction (10 trials)” value (rats [1]; [6]) was 9.3 ± 0.3, the “Extinction (10 trials)” value (rats [1]; [7]) was 6.5 ± 0.7 and the “Extinction (10 trials)” value (rats [1]; [8]) was 4.0 ± 0.6. The “Extinction (10 trials)” value (rats [1]; [9]) was 9.5 ± 0.4, the “Extinction (10 trials)” value (rats [1]; [10]) was 3.0 ± 0.0 and the “Extinction (10 trials)” value (rats [1]; [11]) was 0.5 ± 0.4.
For “H-GGFMTSEKSQTPLVTL-OH [[Des-Tyr^1]γ-endorphin, H-Gly-Gly-Phe-Met-Thr-Ser-Glu-Lys-Ser-Gln-Thr-Pro-Leu-Val-Thr-Leu-OH]”, the “Extinction (10 trials)” value (rats [1]; 0.01 μg per rat s.c., 0 h (first extinction session, injection immediately after)) was 9.0 ± 0.3, the “Extinction (10 trials)” value (rats [1]; 0.01 μg per rat s.c., 2 h after injection) was 6.2 ± 0.4 and the “Extinction (10 trials)” value (rats [1]; 0.01 μg per rat s.c., 4 h after injection) was 4.2 ± 0.7. For the same compound, the “Extinction (10 trials)” value (rats [1]; [9]) was 8.8 ± 0.4, the “Extinction (10 trials)” value (rats [1]; [10]) was 2.8 ± 1.0 and the “Extinction (10 trials)” value (rats [1]; [11]) was 1.2 ± 0.5. The “Extinction (10 trials)” value (rats [1]; [12]) was 9.3 ± 0.5, the “Extinction (10 trials)” value (rats [1]; [13]) was 3.0 ± 0.7 and the “Extinction (10 trials)” value (rats [1]; [14]) was 1.3 ± 0.5.
For β-Lipotropin, the fat-mobilising activity [2] is listed as “shows fat-mobilising activity”.
For β-melanotropin, the “influencing the pigmentation of the skin” value (melanocytes) is listed as “capable of influencing the pigmentation of the skin by stimulating the melanocytes”.
For Met-enkephalin, the “affinity for the opiate receptor” value (opiate receptor) is listed as “a certain affinity for the opiate receptor” and the “effect on extinction of the (active) flight response in the pole-climbing test” value (“effect on extinction” below) (rats [3]) is listed as “inhibit the extinction of the flight response”.
For γ-lipotropin, the fat-mobilising activity [2] is listed as “possesses fat-mobilising properties”.
For β-LPH-(61-69), the “affinity for the opiate receptor” value (opiate receptor) is given as “a certain affinity for the opiate receptor” and the “effect on extinction” value (rats [3]) is given as “inhibit the extinction of the flight response”.
For α-endorphin, the “affinity for the opiate receptor” value (opiate receptor) is listed as “a certain affinity for the opiate receptor”, the “Extinction (10 trials)” value (rats [1]; [12]) is listed as 9.0 ± 0.4 and the “Extinction (10 trials)” value (rats [1]; [13]) is listed as 8.3 ± 0.3. The “Extinction (10 trials)” value (rats [1]; [14]) was 7.8 ± 0.3, the reduction in ambulation (rats [4]) was “could not be observed” and the “effect on extinction” value (rats [3]) was “inhibit the extinction of the flight response; also recorded: retarded this extinction of the flight response”.
With γ-endorphin the “Extinction (10 trials)” value (rats [1]; [6]) was 8.8 ± 0.3, the “Extinction (10 trials)” value (rats [1]; [7]) was 6.7 ± 0.8 and the “Extinction (10 trials)” value (rats [1]; [8]) was 4.0 ± 0.7. For the same compound, the “Extinction (10 trials)” value (rats [1]; [9]) was 9.3 ± 0.3, the “Extinction (10 trials)” value (rats [1]; [10]) was 5.5 ± 0.6 and the “Extinction (10 trials)” value (rats [1]; [11]) was 2.3 ± 0.4. The “Extinction (10 trials)” value (rats [1]; [12]) was 9.0 ± 0.4, the “Extinction (10 trials)” value (rats [1]; [13]) was 4.6 ± 0.3 and the “Extinction (10 trials)” value (rats [1]; [14]) was 0.8 ± 0.4. The reduction in ambulation (rats [4]) was “could not be observed” and the “effect on extinction” value (rats [3]) was “accelerate the extinction of the flight response”.
In the case of Leu-enkephalin, the “affinity for the opiate receptor” value (opiate receptor) is listed as “Affinity for the opiate receptor”.
For “β-endorphin (YGGFMTSEKSQTPLVTLFKNAIIKNAYKKGE; Beta-endorphin; UniProt P01189 237-267, looked up)”, the “effect on extinction” value (rats [3]) is given as “inhibits the extinction of the (active) flight response” and the analgesic activity [5] is given as “possess analgesic activity”.
